Test results taken from article PMC10933169, “Potent anticancer activity of (Z)-3-hexenyl-β-D-glucopyranoside in pancreatic cancer cells” (Naunyn-Schmiedeberg's Archives of Pharmacology, 2023).
Values joined by “and” are separate entries in the source; they are usually repeats but may differ in a detail not shown here. Equal values may be shown once.

Key:
Format in all cases: cell-based
[1] = tested on: Panc1 (pancreatic carcinoma) cells; experiment: MTT cytotoxicity assay, Panc1; conditions: Homo sapiens, PANC-1, 48 h treatment
Protocol: (§1) The cell lines PANC-1 (pancreatic carcinoma), MCF7 (breast carcinoma), HepG2 (hepatocellular carcinoma), and WI-38 (normal lung fibroblast cells) were obtained from the American Type Culture Collection (ATCC) located in Manassas, Virginia, United States. These cell lines were cultured in DMEM (Invitrogen, Life Technologies, Rockville, MD, USA) medium supplemented with 10% FBS (Fetal Bovine Serum, Hyclone, Thermo Fisher Scientific, Waltham, MA, USA) and 1% penicillin (Sigma-Aldrich, Louis, MO, USA). The cells were maintained at 37°C in a 5% CO2 and 95% humidity environment for a maximum period of two weeks to ensure their viability for further experimentation. Cell detachment was achieved using a solution containing 0.25% (w/v) trypsin (Sigma-Aldrich, Louis, MO, USA) and 0.53 mM EDTA ((Sigma-Aldrich, Louis, MO, USA), followed by re-cultivation in fresh media.
The cultivated cells were seeded in 96-well plates at a concentration of 1 × 10^4 cells/100 μL per well (Naik et al. [2014]). The cultured plates were then incubated for 24 hours at 37°C. […] The tested concentrations of the compounds (1, 10, 30, and 100 µg/mL) in 0.01 - 0.1% DMSO in ddH2O were prepared by diluting the stock solutions with double-distilled water (ddH2O). […] A negative control using 0.1% DMSO in ddH2O was also included. The treated cells were further incubated for 48 hours at 37 °C. The media of the treated and control plates were removed and replaced by fresh media containing MTT (Sigma, Louis, MO, USA) reagent in a concentration of 1 mg/mL (Ponnusamy et al. [2016]), then incubated for 2 hours. The viability of the cancer cells was determined by measuring the amount of formazan formed by viable cells. […] The intensity of the produced colour was measured using an ELISA plate reader (Bio-Tek EL 800, Agilent technology, Santa Clara, CA, USA) at wavelength of 570 nm. The percent of cells viability was calculated by the following equation: %viability=AA570oftreated-AA570ofblank/AA570ofcontrol-AA570ofblank×100
(§2) AA Average of triplicate absorbances for each sample concentration

[2] = tested on: HepG2 (hepatocellular carcinoma) cells; experiment: MTT cytotoxicity assay, HepG2; conditions: Homo sapiens, 48 h treatment
Protocol: as §1, with “Cell detachment was achieved using a solution containing 0.25% (w/v) trypsin (Sigma-Aldrich, Louis, MO, USA) and 0.53 mM EDTA ((Sigma-Aldrich, Louis, MO, USA), followed by re-cultivation in fresh media.” left out
(§3) The cultivated cells were seeded in 96-well plates at a concentration of 1 × 10^4 cells/100 μL per well (Naik et al. [2014]). […] The viability of the cancer cells was determined by measuring the amount of formazan formed by viable cells. […] The intensity of the produced colour was measured using an ELISA plate reader (Bio-Tek EL 800, Agilent technology, Santa Clara, CA, USA) at wavelength of 570 nm. The percent of cells viability was calculated by the following equation: %viability=AA570oftreated-AA570ofblank/AA570ofcontrol-AA570ofblank×100
as §2

[3] = tested on: MCF7 (breast carcinoma) cells; experiment: MTT cytotoxicity assay, MCF7; conditions: Homo sapiens, 48 h treatment
Protocol: as §1, with “Cell detachment was achieved using a solution containing 0.25% (w/v) trypsin (Sigma-Aldrich, Louis, MO, USA) and 0.53 mM EDTA ((Sigma-Aldrich, Louis, MO, USA), followed by re-cultivation in fresh media.” left out
as §3, §2

[4] = MTT cytotoxicity assay, WI-38 normal cells; conditions: human, WI-38 normal lung fibroblast cells, 48 h treatment, read-out: Cytotoxicity IC50 WI38
Protocol: as §1, with “Cell detachment was achieved using a solution containing 0.25% (w/v) trypsin (Sigma-Aldrich, Louis, MO, USA) and 0.53 mM EDTA ((Sigma-Aldrich, Louis, MO, USA), followed by re-cultivation in fresh media.” left out
as §3, §2

[5] = tested on: WI-38 (normal lung fibroblast cells); experiment: MTT cytotoxicity assay, WI-38 normal cells; conditions: 48 h treatment, read-out: Cytotoxicity IC50 WI38
Protocol: as §1, with “Cell detachment was achieved using a solution containing 0.25% (w/v) trypsin (Sigma-Aldrich, Louis, MO, USA) and 0.53 mM EDTA ((Sigma-Aldrich, Louis, MO, USA), followed by re-cultivation in fresh media.” left out
as §3, §2

Panc1 cells [6] = experiment: Flow cytometry analysis of cell DNA contents / cell cycle (propidium iodide); conditions: 10 µM
Protocol: All reagents and kits for this assay were obtained from Abcam (Abcam Technology, Boston, MA, USA). The detection of DNA cell contents and cell cycle status was conducted following the established method (Xu et al. [2001]). To provide a brief overview, Panc1 pancreatic cancer cells (ATCC, Manassas, Virginia, USA) were cultured in a single-cell suspension in DMEM medium (Invitrogen, Life Technologies, Rockville, MD, USA). Subsequently, the cells were fixed in 66% ethanol (Sigma-Aldrich, Louis, MO, USA) and kept on ice for 2 hours. Afterward, the cancer cells were washed with a PBS (Sigma-Aldrich, Louis, MO, USA) solution (5 mL of 10X PBS + 45 mL water), re-cultured in fresh medium, and incubated at 37 °C for 24 hours. A concentration of 10 µM of (Z)-3-hexenyl-β-D-glucopyranoside was added in triplicate, chosen based on previously reported data (Ponnusamy et al. [2016]; Xu et al. [2001]) for 24h. The second dose of 10 µM of (Z)-3-hexenyl-β-D-glucopyranoside was added to the Panc1 cells then incubated for 24 h. Following a 48-hour incubation period from the first dose, the cells were trypsinized, fixed, and stained with propidium iodide-RNase enzyme reagent (9.45 mL PBS + 500 μL 20X propidium iodide + 50 μL 200X RNase) from Abcam Technology, Boston, MA, USA. […] The incubation time for fluorescence quantification was 30 minutes. The experiment was repeated twice.

Panc1 cells [7] = experiment: Annexin V-FITC cellular apoptotic assay; conditions: 10 µM, 48 h
Protocol: The reagents used in this assay included the Annexin V-FITC kit (Abcam Technology, Boston, MA, USA), 1X binding buffer (Abcam Technology, Boston, MA, USA), and propidium iodide (Bio Vision Research Products, Mountain View, CA, USA). Panc1 cells were seeded in 6-well plates and incubated at 37 °C for 24 hours. Compound 1 ((Z)-3-hexenyl-β-D-glucopyranoside) was then added to the cultivated Panc1 6-well plates at a concentration of 10 µM and incubated for 48 hours. Subsequently, the cancer cells were trypsinized and centrifuged for 10 minutes at 300 rpm. The resulting precipitate was resuspended in 500 µL of 1X binding buffer. Annexin V-FITC (5 µL) and propidium iodide (5 µL) reagents were added to the treated cancer cell plates and incubated for 5 minutes in the dark at room temperature. A flow cytometer (Novocyte, Agilent technology, Santa Clara, CA, USA) with an excitation maximum of 488 nm and an emission maximum of 530 nm was employed to measure the intensity of annexin-binding phosphatidylserine (PS) and consequently determine the amount of apoptotic cells (Koopman et al. [1994]).

[8] = tested on: Casp3 gene expression in Panc1 cells; experiment: SYBR Green RT-PCR gene expression, caspase3; conditions: 48 h, (Z)-3-hexenyl-β-D-glucopyranoside at 10 µM, control 1
Protocol: (§4) The effects of 10 µM of (Z)-3-hexenyl-β-D-glucopyranoside on the mRNA expression of caspase3, bax, and Bcl-2 genes were investigated using the reverse transcription-polymerase […] technique. After a 48-hour incubation of (Z)-3-hexenyl-β-D-glucopyranoside in Panc1 (pancreatic carcinoma) cells, mRNA isolation of the selected proteins was performed using the RN easy extraction kit (Qiagen, Hilden, Germany), following previously described methods (Janicke et al. [1998]). For real-time quantitative PCR of the RNA templates, a one-step RT-PCR kit with SYBR® Green (Bio-Rad SYBR Green PCR MMX, Hercules, California, USA) was added to a 25 μL 2X SYBR® Green RT-PCR reaction mix (Bio-Rad, Hercules, California, USA). The reaction mix contained 2X reaction buffer with 0.4 mM of each dNTP, magnesium chloride, iTaq DNA polymerase, 20 nM fluorescein SYBR® Green I dye, stabilizers, 11 μL nuclease-free water, 1.5 μL reverse primer (10 μM), 1.5 μL forward primer (10 μM), 1 μL iScript reverse transcriptase, and RNA template (1 pg to 100 ng total RNA). The cDNA synthesis and PCR amplifications were performed in the same tube using Rotor-Gene RT-PCR (Qiagen, Hilden, Germany) software 1.7 (Abed et al. [2021]). The primers used in the RT-PCR reaction were obtained from Corbett Life Science Division (Reg. No. QEC21313), Corbett Research, Mortlake, Australia. […]

[9] = tested on: Bax gene expression in Panc1 cells; experiment: SYBR Green RT-PCR gene expression, Bax; conditions: 48 h, (Z)-3-hexenyl-β-D-glucopyranoside at 10 µM, control 1.436
Protocol: as §4

[10] = tested on: Bcl-2 gene expression in Panc1 cells; experiment: SYBR Green RT-PCR gene expression, Bcl-2; conditions: 48 h, (Z)-3-hexenyl-β-D-glucopyranoside at 10 µM, control 1
Protocol: as §4

Compound | IC50 [1] [µM] | IC50 [2] [µM] | IC50 [3] [µM] | IC50 at 48 h [4] [µM] | IC50 [5] [µM] | Cell cycle effect (Comment) (Panc1 cells [6]) | DNA content %G2/M (Panc1 cells [6]; control 10.47) [%] | DNA content %S (Panc1 cells [6]; control 32.11) [%] | DNA content %G0-G1 (Panc1 cells [6]; control 57.42) [%] | Cell cycle effect (Comment) (Panc1 cells [6]; listed as E-W-4) | Necrosis (Panc1 cells [7]) [%] | Apoptosis Late (Panc1 cells [7]; control 0.28%) [%] | Apoptosis Early (Panc1 cells [7]; control 0.47%) [%] | Apoptosis Total (Panc1 cells [7]; control 1.86%) | RT-PCR results fold change Casp3 [8] [fold] | RT-PCR results fold change Bax [9] [fold] | RT-PCR results fold change Bcl-2 [10] [fold]
CCC=CCCOC1OC(CO)C(O)C(O)C1O [Compound 1, (Z)-3-hexenyl-β-D-glucopyranoside] | 7.6 | 45.8 | 109 | 194 | 195 | cell growth arrest at the S phase | 3.38 | 44.01 | 52.61 | Cell growth arrest@ S phase | 5.52 | 9.85 | 26.15 | 42% and 41.52% | 4.064 | 3.173 | 0.231
O=C(O)c1cc(O)c(O)c(O)c1 [Gallic acid] | 21.8 | – | – | – | – | – | – | – | – | – | – | – | – | – | – | – | –
Oc1cccc(O)c1O [Pyrogallol] | 198 | – | – | – | – | – | – | – | – | – | – | – | – | – | – | – | –
